The data set can be described thus: Dynamic vapor sorption (DVS) moisture sorption isotherm. In kind it is physicochemical. The following applies: reversible; from 0 to 90% RH; 25° C. Here is the method:
The crystalline Form I provided can be additionally characterized by dynamic vapor sorption (DVS), wherein a sample is subjected to varying conditions of humidity and temperature, and the response of the sample is measured gravimetrically. The result of a DVS analysis particularly can be a dual curve providing sample weight percent as a function of relative humidity (RH) over time, a dual curve providing sample water content as a function of RH over time, a curve providing weight percent in relation to RH, or a curve providing water content in relation to RH. Equipment useful for measuring such data is known in the art, and any such equipment can be used to measure the compounds according to the present disclosure. In certain embodiments, DVS analysis can be carried out by scanning at a series of specific RH values. […]
Sorption isotherms were obtained using a SMS DVS Intrinsic moisture sorption analyser, controlled by DVS Intrinsic Control software v1.0.1.2 (or v 1.0.1.3). […] The relative humidity (RH) was measured by a calibrated Rotronic probe (dynamic range of 1.0-100% RH), located near the sample. The weight change, (mass relaxation) of the sample as a function of % RH was constantly monitored by the microbalance (accuracy±0.005 mg). […]
The sample was recovered after completion of the isotherm and re-analyzed by XRPD.

Each structure is given as a SMILES string.

`NC(=O)/C(=C/n1cnc(-c2cc(C(F)(F)F)cc(C(F)(F)F)c2)n1)c1cncnc1` [Crystalline Form I, (E)-3-(3-(3,5-bis(trifluoromethyl)phenyl)-1H-1,2,4-triazol-1-yl)-2-(pyrimidin-5-yl)acrylamide]: the “water adsorption (dynamic vapor sorption)” value is listed as 0.12 % w/w.

Source of the values: patent US12673939B2, “Methods of synthesis of heteroaryl derivatives of triazolyl acrylamides and crystalline forms” (Karyopharm Therapeutics Inc., priority 2021, dated 2026).
